According to ChEMBL document CHEMBL1201862, “PubChem BioAssay data set” (2004):
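Exposure lasted 48 hours, with cells grown in 96-well plates and compounds tested at five concentrations. GI50: concentration for 50% inhibition of growth.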 Calls of active or inactive are those of the source. Rule as the data show it: active = GI50 up to about 1.1 µM and inactive = higher.

Legend:
Assay in all cases: NCI anticancer screen, dose series, 48 h
TK-10 = tested on: TK-10
RPMI-8226 = tested on: RPMI-8226
LXFL 529 = tested on: LXFL 529
SK-MEL-5 = tested on: SK-MEL-5
HOP-92 = tested on: HOP-92
SF-295 = tested on: SF-295
ACHN = tested on: ACHN
COLO 205 = tested on: COLO 205
HOP-62 = tested on: HOP-62
HT-29 = tested on: HT-29
SW-620 = tested on: SW-620
SK-MEL-28 = tested on: SK-MEL-28
SNB-75 = tested on: SNB-75
K562 = tested on: K562
A549 = tested on: A549
OVCAR-5 = tested on: OVCAR-5

Structure (SMILES): O=C1C(c2ccccc2)=C(c2ccccc2)[C@H](c2ccccc2)[C@]1(Cc1nnn(-c2ccc([N+](=O)[O-])cc2)c1N1CCOCC1)c1ccccc1
- GI50 (TK-10): > 37.5 µM (inactive)
- GI50 (RPMI-8226): > 37.5 µM (inactive)
- GI50 (LXFL 529): 24.4 µM (inactive)
- GI50 (SK-MEL-5): 19.1 µM (inactive)
- GI50 (HOP-92): 0.00621 µM (active)
- GI50 (SF-295): 35.6 µM (inactive)
- GI50 (ACHN): 14.5 µM (inactive)
- GI50 (COLO 205): > 37.5 µM (inactive)
- GI50 (HOP-62): > 37.5 µM (inactive)
- GI50 (HT-29): > 37.5 µM (inactive)
- GI50 (SW-620): > 37.5 µM (inactive)
- GI50 (SK-MEL-28): > 37.5 µM (inactive)
- GI50 (SNB-75): > 37.5 µM (inactive)
- GI50 (K562): > 37.5 µM (inactive)
- GI50 (A549): > 37.5 µM (inactive)

Structure (SMILES): CC1=C(/C(C)=N/NS(=O)(=O)c2ccc(C)cc2)Sc2ccccc2N1
- GI50 (TK-10): > 100 µM (inactive)
- GI50 (RPMI-8226): 56.8 µM (inactive)
- GI50 (LXFL 529): 79.6 µM (inactive)
- GI50 (SK-MEL-5): 47.5 µM (inactive)
- GI50 (HOP-92): 81.8 µM (inactive)
- GI50 (OVCAR-5): > 100 µM (inactive)
- GI50 (SF-295): 50.5 µM (inactive)
- GI50 (ACHN): > 100 µM (inactive)
- GI50 (COLO 205): 48.1 µM (inactive)
- GI50 (HOP-62): > 100 µM (inactive)
- GI50 (HT-29): 98.6 µM (inactive)
- GI50 (SW-620): > 100 µM (inactive)
- GI50 (SK-MEL-28): > 100 µM (inactive)
- GI50 (SNB-75): 75.7 µM (inactive)
- GI50 (K562): 37.7 µM (inactive)
- GI50 (A549): > 100 µM (inactive)

Structure (SMILES): N#CCCc1nc2ccc(Br)cc2c(=O)n1CCO
- GI50 (TK-10): > 100 µM (inactive)
- GI50 (RPMI-8226): > 100 µM (inactive)
- GI50 (LXFL 529): > 100 µM (inactive)
- GI50 (SK-MEL-5): > 100 µM (inactive)
- GI50 (HOP-92): > 100 µM (inactive)
- GI50 (SF-295): > 100 µM (inactive)
- GI50 (COLO 205): > 100 µM (inactive)
- GI50 (HOP-62): > 100 µM (inactive)
- GI50 (SW-620): > 100 µM (inactive)
- GI50 (SK-MEL-28): > 100 µM (inactive)
- GI50 (SNB-75): > 100 µM (inactive)
- GI50 (K562): > 100 µM (inactive)
- GI50 (A549): > 100 µM (inactive)

Structure (SMILES): CC(C)C(/C=C/c1ccccc1)=N\NC(=O)N/N=C(/C=C/c1ccccc1)C(C)C
- GI50 (TK-10): 33.8 µM (inactive)
- GI50 (RPMI-8226): 24.3 µM (inactive)
- GI50 (LXFL 529): 23.2 µM (inactive)
- GI50 (SK-MEL-5): 21.7 µM (inactive)
- GI50 (HOP-92): 20.7 µM (inactive)
- GI50 (OVCAR-5): 38.2 µM (inactive)
- GI50 (SF-295): 39.9 µM (inactive)
- GI50 (ACHN): 26.9 µM (inactive)
- GI50 (COLO 205): 18.4 µM (inactive)
- GI50 (HOP-62): 40.6 µM (inactive)
- GI50 (HT-29): 26.5 µM (inactive)
- GI50 (SW-620): 37 µM (inactive)
- GI50 (SK-MEL-28): 74 µM (inactive)
- GI50 (SNB-75): 25.8 µM (inactive)
- GI50 (K562): 21.2 µM (inactive)
- GI50 (A549): 23.1 µM (inactive)

Structure (SMILES): O=C(CN(Cc1ccccc1)Cc1ccccc1)N1CCc2c([nH]c3ccccc23)C1c1cccnc1 (configuration not stated)
- GI50 (TK-10): 27.5 µM (inactive)
- GI50 (RPMI-8226): 1.86 µM (inactive)
- GI50 (LXFL 529): 6.67 µM (inactive)
- GI50 (SK-MEL-5): 7.23 µM (inactive)
- GI50 (HOP-92): 2.79 µM (inactive)
- GI50 (OVCAR-5): 7.38 µM (inactive)
- GI50 (SF-295): 6.64 µM (inactive)
- GI50 (ACHN): 7.64 µM (inactive)
- GI50 (HOP-62): 39 µM (inactive)
- GI50 (HT-29): 5.57 µM (inactive)
- GI50 (SW-620): 5.65 µM (inactive)
- GI50 (SK-MEL-28): 21.2 µM (inactive)
- GI50 (SNB-75): 7.36 µM (inactive)
- GI50 (K562): 3.17 µM (inactive)
- GI50 (A549): 4.59 µM (inactive)

Structure (SMILES): NC(=O)NC1C(C(N)=O)N(Cc2ccccc2)C(=O)N1Cc1ccccc1 (configuration not stated)
- GI50 (TK-10): > 100 µM (inactive)
- GI50 (RPMI-8226): > 100 µM (inactive)
- GI50 (LXFL 529): > 100 µM (inactive)
- GI50 (SK-MEL-5): > 100 µM (inactive)
- GI50 (HOP-92): > 100 µM (inactive)
- GI50 (OVCAR-5): 40.7 µM (inactive)
- GI50 (SF-295): > 100 µM (inactive)
- GI50 (ACHN): > 100 µM (inactive)
- GI50 (COLO 205): > 100 µM (inactive)
- GI50 (HOP-62): > 100 µM (inactive)
- GI50 (HT-29): > 100 µM (inactive)
- GI50 (SW-620): > 100 µM (inactive)
- GI50 (SK-MEL-28): > 100 µM (inactive)
- GI50 (SNB-75): > 100 µM (inactive)
- GI50 (K562): > 100 µM (inactive)
- GI50 (A549): > 100 µM (inactive)

Structure (SMILES): COCC(=O)CP(=O)(OC)OC
- GI50 (TK-10): > 100 µM (inactive)
- GI50 (RPMI-8226): > 100 µM (inactive)
- GI50 (LXFL 529): > 100 µM (inactive)
- GI50 (SK-MEL-5): > 100 µM (inactive)
- GI50 (HOP-92): > 100 µM (inactive)
- GI50 (OVCAR-5): > 100 µM (inactive)
- GI50 (SF-295): > 100 µM (inactive)
- GI50 (ACHN): > 100 µM (inactive)
- GI50 (COLO 205): > 100 µM (inactive)
- GI50 (HOP-62): > 100 µM (inactive)
- GI50 (HT-29): > 100 µM (inactive)
- GI50 (SW-620): > 100 µM (inactive)
- GI50 (SK-MEL-28): > 100 µM (inactive)
- GI50 (SNB-75): > 100 µM (inactive)
- GI50 (K562): > 100 µM (inactive)
- GI50 (A549): > 100 µM (inactive)
